In US20250230193A1, “CYCLIC COMPOUND HAVING SELECTIVE KRAS INHIBITORY EFFECT ON HRAS AND NRAS” (CHUGAI SEIYAKU KABUSHIKI KAISHA, priority 2022, published 2025):
Where a SMILES comes first, the peptide text is derived from it. Bridges are numbered along the chain shown (N, C = ends). [ ]: non-standard residue; d: D form. The star is where a group is joined. hPhe(3-Cl-4-CF3) = N[C@@H](CCc1ccc(C(F)(F)F)c(Cl)c1)C(=O)O; NPrPhe(4-CF3) = CCCN[C@@H](Cc1ccc(C(F)(F)F)cc1)C(=O)O; NMeGly(cPent) = CN[C@H](C(=O)O)C1CCCC1; NMeD = CN[C@@H](CC(=O)O)C(=O)O; NMeL = CN[C@@H](CC(C)C)C(=O)O; Ac6c = NC1(C(=O)O)CCCCC1; Morpholide = C1CN(*)CCO1; Ac5c = NC1(C(=O)O)CCCC1; NEtG = CCNCC(=O)O; Sar = CNCC(=O)O

Assays:
[1] = molecular target: GDP-bound NRAS wild-type protein (Homo sapiens, UniProt P01111); assay: Binding to NRAS by surface plasmon resonance (SPR), Single Cycle Kinetics; conditions: for NRAS/KRAS (ratio of KD for GDP-bound NRAS wild-type to KD for KRAS) / NRAS/KRAS (ratio of KD value with respect to NRAS to KD value with respect to KRAS) / NRAS/KRAS (ratio of KD value for NRAS to KD value for KRAS): SPR; for NRAS/KRAS (ratio of KD value with respect to NRAS to KD value with respect to KRAS) / NRAS/KRAS (ratio of KD value for NRAS to KD value for KRAS): GDP-bound NRAS wild-type vs GDP-bound KRAS wild-type
GDP-bound NRAS wild-type protein, sequence (P01111 whole entry): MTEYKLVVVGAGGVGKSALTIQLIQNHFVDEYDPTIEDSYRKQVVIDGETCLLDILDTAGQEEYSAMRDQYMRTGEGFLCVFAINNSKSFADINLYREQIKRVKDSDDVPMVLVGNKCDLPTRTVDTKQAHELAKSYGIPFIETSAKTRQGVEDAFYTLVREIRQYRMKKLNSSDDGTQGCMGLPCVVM

[2] = molecular target: GDP-bound HRAS wild-type protein (Homo sapiens, UniProt P01112); assay: Binding to HRAS by surface plasmon resonance (SPR), Single Cycle Kinetics; conditions: for HRAS/KRAS (ratio of KD for GDP-bound HRAS wild-type to KD for KRAS) / HRAS/KRAS (ratio of KD value with respect to HRAS to KD value with respect to KRAS) / HRAS/KRAS (ratio of KD value for HRAS to KD value for KRAS): SPR; for HRAS/KRAS (ratio of KD value with respect to HRAS to KD value with respect to KRAS) / HRAS/KRAS (ratio of KD value for HRAS to KD value for KRAS): GDP-bound HRAS wild-type vs GDP-bound KRAS wild-type
GDP-bound HRAS wild-type protein, sequence (P01112 whole entry): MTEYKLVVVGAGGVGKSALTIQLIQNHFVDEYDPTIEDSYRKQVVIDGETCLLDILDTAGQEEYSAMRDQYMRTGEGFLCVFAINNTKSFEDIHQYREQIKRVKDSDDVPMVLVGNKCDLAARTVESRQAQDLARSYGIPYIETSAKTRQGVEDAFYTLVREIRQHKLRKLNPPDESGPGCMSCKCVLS

CCCN1C(=O)CN(C)C(=O)CN(CC)C(=O)[C@H]([C@@H](C)CC)NC(=O)[C@H](CC(C)C)N(C)C(=O)C[C@@H](C(=O)N2CCOCC2)NC(=O)[C@H](C2CCCC2)N(C)C(=O)C2(CCCC2)NC(=O)[C@@H]2CCCN2C(=O)[C@H](CCc2ccc(C(F)(F)F)c(Cl)c2)NC(=O)CN(C)C(=O)[C@@H]1Cc1ccc(C(F)(F)F)cc1 [PP0331] ([NMeL]I[NEtG][Sar][NPrPhe(4-CF3)][Sar][hPhe(3-Cl-4-CF3)]P[Ac5c][NMeGly(cPent)]D-Morpholide; lactam N-11)
NRAS/KRAS (ratio of KD for GDP-bound NRAS wild-type to KD for KRAS) ([1]; KD ratio NRAS/KRAS): B (a compound having 3 or more and less than 10 is denoted as B)
HRAS/KRAS (ratio of KD for GDP-bound HRAS wild-type to KD for KRAS) ([2]; KD ratio HRAS/KRAS): B (a compound having 3 or more and less than 10 is denoted as B)

CCCOC[C@H]1C(=O)N[C@@H]([C@@H](C)CC)C(=O)N(C)CC(=O)N(C)[C@H]2C/C=C\CCN(C2=O)[C@@H](Cc2ccc(C)cc2)C(=O)N(C)CC(=O)N[C@@H](CCc2ccc(C(F)(F)F)c(Cl)c2)C(=O)N2C[C@H](OCC)C[C@H]2C(=O)NC2(CC(C)(C)C2)C(=O)N(C)[C@@H](C2CCCC2)C(=O)N(C)[C@H](C(=O)N(C)C)CC(=O)N1C [PP2402]
NRAS/KRAS (ratio of KD value with respect to NRAS to KD value with respect to KRAS) [1]: A (a compound having 10 or more and less than 20 is denoted as A)
HRAS/KRAS (ratio of KD value with respect to HRAS to KD value with respect to KRAS) [2]: A (a compound having 10 or more and less than 20 is denoted as A)

CCCN1C(=O)CN(C)C(=O)CN(C)C(=O)[C@H]([C@@H](C)CC)NC(=O)[C@H](CC(C)C)N(C)C(=O)C[C@@H](C(=O)N2CCOCC2)N(C)C(=O)[C@H](C2CCCC2)N(C)C(=O)C2(CCCCC2)NC(=O)[C@@H]2CCCN2C(=O)[C@H](CCc2ccc(C(F)(F)F)c(Cl)c2)NC(=O)CN(C)C(=O)[C@@H]1Cc1ccc(C(F)(F)F)cc1 [PP0231] ([NMeL]I[Sar][Sar][NPrPhe(4-CF3)][Sar][hPhe(3-Cl-4-CF3)]P[Ac6c][NMeGly(cPent)][NMeD]-Morpholide; lactam N-11)
NRAS/KRAS (ratio of KD for GDP-bound NRAS wild-type to KD for KRAS) ([1]; KD ratio NRAS/KRAS): B (a compound having 3 or more and less than 10 is denoted as B)
HRAS/KRAS (ratio of KD for GDP-bound HRAS wild-type to KD for KRAS) ([2]; KD ratio HRAS/KRAS): C (A compound having a KD ratio of 0.1 or more and less than 3 is denoted as C)

CCO[C@@H]1C[C@H]2C(=O)NC3(CCC3)C(=O)N(C)[C@@H](CC(F)F)C(=O)N(C)[C@H](C(=O)N3CCOCC3)CC(=O)N(C)[C@@H](CC(C)C)C(=O)N[C@@H]([C@@H](C)CC)C(=O)N(C)CC(=O)N(C)[C@H]3CCCCN(C3=O)[C@@H](Cc3ccc(C(F)(F)F)cc3)C(=O)N(C)CC(=O)N[C@@H](CCc3cc(F)c(C(F)(F)F)c(F)c3)C(=O)N2C1 [PP0813]
NRAS/KRAS (ratio of KD value with respect to NRAS to KD value with respect to KRAS) ([1]; KD ratio): C (A compound having a KD ratio of 0.1 or more and less than 3 is denoted as C)
HRAS/KRAS (ratio of KD value with respect to HRAS to KD value with respect to KRAS) ([2]; KD ratio): B (a compound having 3 or more and less than 10 is denoted as B)

CC[C@H](C)[C@@H]1NC(=O)[C@H](CC2CC2)N(C)C(=O)C[C@@H](C(=O)N(C)C)N(C)C(=O)[C@H](C2CCCC2)N(C)C(=O)C2(CCC2)N(C)C(=O)[C@@H]2C[C@@H](C)CN2C(=O)[C@H](CCc2cc(F)c(C(F)(F)F)c(F)c2)NC(=O)CN(C)C(=O)[C@H](Cc2ccc(C)cc2)N2CC/C=C\C[C@@H](C2=O)N(C)C(=O)CN(C)C1=O [PP1800]
NRAS/KRAS (ratio of KD value for NRAS to KD value for KRAS) ([1]; KD ratio): A (a compound having 10 or more and less than 20 is denoted as A)
HRAS/KRAS (ratio of KD value for HRAS to KD value for KRAS) ([2]; KD ratio): A (a compound having 10 or more and less than 20 is denoted as A)

CCCOC[C@H]1C(=O)N[C@@H]([C@@H](C)CC)C(=O)N(C)CC(=O)N(C)[C@H]2C/C=C\CCN(C2=O)[C@@H](Cc2ccc(C(F)(F)F)cc2)C(=O)N(C)CC(=O)N[C@@H](CCc2ccc(C(F)(F)F)c(Cl)c2)C(=O)N2C[C@H](OCC)C[C@H]2C(=O)NC2(CCC2)C(=O)N(C)[C@@H](C2CCCC2)C(=O)N(C)[C@H](C(=O)N(C)CCC)CC(=O)N1C [PP2831]
NRAS/KRAS (ratio of KD value with respect to GDP-bound NRAS wild-type protein to KD value with respect to KRAS) ([1]; KD ratio NRAS/KRAS, class symbols): A (a compound having 10 or more and less than 20 is denoted as A)
HRAS/KRAS (ratio of KD value with respect to GDP-bound HRAS wild-type protein to KD value with respect to KRAS) ([2]; KD ratio HRAS/KRAS, class symbols): A (a compound having 10 or more and less than 20 is denoted as A)

CCCN(C)C(=O)[C@@H]1CC(=O)N(C)[C@@H](CC)C(=O)N[C@@H]([C@@H](C)CC)C(=O)N(C)CC(=O)N(C)[C@H]2C/C=C\CCN(C2=O)[C@@H](Cc2ccc(C(F)(F)F)cc2)C(=O)N(C)CC(=O)N[C@@H](CCc2cc(F)c(C(F)(F)F)c(F)c2)C(=O)N2C[C@H](OCC)C[C@H]2C(=O)NC2(CCC2)C(=O)N(C)[C@@H](C2CCCC2)C(=O)N1C [PP1699]
NRAS/KRAS (ratio of KD value for NRAS to KD value for KRAS) ([1]; KD ratio): A (a compound having 10 or more and less than 20 is denoted as A)
HRAS/KRAS (ratio of KD value for HRAS to KD value for KRAS) ([2]; KD ratio): A (a compound having 10 or more and less than 20 is denoted as A)

C#CC[C@H]1C(=O)N[C@@H]([C@@H](C)CC)C(=O)N(C)CC(=O)N(C)[C@H]2C/C=C\CCN(C2=O)[C@@H](Cc2ccc(C(F)(F)F)cc2)C(=O)N(C)CC(=O)N[C@@H](CCc2cc(F)c(C(F)(F)F)c(F)c2)C(=O)N2C[C@H](OCC)C[C@H]2C(=O)NC2(CC(C)(C)C2)C(=O)N(C)[C@@H](C2CCCC2)C(=O)N(C)[C@H](C(=O)N(C)CCC)CC(=O)N1C [PP2074]
NRAS/KRAS (ratio of KD value with respect to NRAS to KD value with respect to KRAS) [1]: A (a compound having 10 or more and less than 20 is denoted as A)
HRAS/KRAS (ratio of KD value with respect to HRAS to KD value with respect to KRAS) [2]: A (a compound having 10 or more and less than 20 is denoted as A)
